Where “and” joins values, the source holds several entries; their conditions need not be identical. Equal entries are not always repeated. Where two headings read alike, the source gives them in different places.
Columns and labels:
[1] = test system: inflammatory and neuropathic pain; settings: formalin test and spinal nerve ligation; cited from earlier work
[2] = test system: subjects with osteoarthritis of the knee; assay: Osteoarthritis of the knee efficacy study (Phase 2): NRS pain score; type: in vivo, human; settings: 1000 μg intra-articular, three weeks following administration, P=0.03
Method: The study is designed to include 12 evaluation subjects (Patients suffering a defined pain: >40 mm on VAS). […] Patients are treated randomly and in double-blind fashion. Gross and microscopic pathology analysis are completed for each treatment group. Each subject has 3 study visits: a Screening Day (Day −7 to −1), the Treatment Day (Day 0), and a Post-Treatment Day (scheduled for Day +2, +4, +7, or +14). On the Treatment Day the subject is randomized, pre-treatment evaluation is performed. The patient is brought into the procedure room, and a VAS pain score is taken (0 mm—no pain, 100 mm—extreme pain). Once the patient marks his or her pain on the card, he/she is prepped for knee cannulation. Once the cannula is placed, the patient receives, by intra-articular infiltration, 3 mg/kg (maximum dose of 200 mg) of 2% lignocaine into the knee scheduled to be replaced.
VAS pain scores as well as verbal reports are taken immediately following administration, as well as prior to knee replacement surgery. On the Post-Treatment Day, a study evaluation is performed followed by the scheduled knee replacement, with intra-operative bone and soft tissue biopsies performed for subsequent examination. […]
Changes in NRS (Numerical Rating Scale) pain scores were measured at three weeks following administration.

[3] = test system: subjects undergoing transpositional osteotomy (bunionectomy); assay: Bunionectomy efficacy study (Phase II): capsaicin dripped into the wound before closure; VAS pain and rescue medication; type: in vivo, human; settings: for VAS pain score at the operation site (mean +/− SEM): 1000 μg, n = 11
Method: The primary efficacy endpoint was the proportion of subjects in each treatment group requiring opioid analgesia in the first 24 hours post-operatively. The proportions were compared amongst treatment groups using the Cochran-Haenszel test. Secondary efficacy end points included: i) proportion of subjects in each treatment group requiring opioid analgesia in the first 36 hour period post-operatively (Similarly, the proportions were compared amongst treatment groups using the Cochran-Haenszel test); ii) proportion of subjects in each treatment group requiring opioid analgesia in the 10 day period post-operatively (Similarly, the proportions were compared amongst treatment groups using the Cochran-Haenszel test); iii) time to first usage of opioid analgesia in each treatment group (a survival analysis approach will be used: the product-limit (Kaplan-Meier) method will be applied to time to first usage of opioid analgesia. The median time to first usage of opioid analgesia will be estimated in both treatment groups. Pairwise comparisons will be performed to test for equality of the survival curves between the 2 treatment groups using both the log-rank and the Wilcoxon test); iv) total usage of analgesia in each treatment group (the total usage of analgesia will be compared by an analysis of variance with treatment and center as independent variables. A pairwise comparison will be performed between the treatment groups); and v) VAS assessment of pain at the site of operation in each treatment group (The VAS score at each time point will be compared by an analysis of variance with treatment and center as independent variables. A pairwise comparison will be performed between the treatment groups). […] The efficacy analysis was performed on the data obtained ten days postoperatively. The safety analysis was performed based on the safety data for the entire study, including the 6 week and 12 week follow-up periods. The blind was broken at the time the efficacy analysis was performed. However, the individual treatment assignment was available to the statistical analysis group only. All other personnel involved in the study, including the Investigator, study monitor and proprietary staff, remained blinded until the entire study was completed.
The study was designed to include 40 evaluation subjects. […] Each subject had six (6) study visits: a Screening Day (Day −28 to −1), an Operation Day (Day 0), and four (4) Follow-up visits (scheduled for Days 3, 10 and weeks 6 and 12).
On Operation Day (Day 0) the following was performed: a) Pre-operation: Prior to the initiation of an ankle block, inclusion/exclusion criteria assessment was performed. […] Immediately prior to wound closure, the Investigator slowly dripped the study medication (4 mL) from a syringe into the wound, ensuring even tissue exposure. The wound was then be closed according to normal practices and procedures.
In the 24 hours following administration of study medication, vital signs (supine pulse rate and blood pressure) were recorded at 1, 2, 4 and 24 hours post administration. VAS assessment of pain at the operation site was performed at 1, 4, 8, 12 and 24 hours post administration. In those instances where VAS measurements coincide with blood sampling procedures, the VAS assessment was performed first. […] The quantity of each blood sample was 10 mL. Laboratory safety assessments, e.g., haematology, biochemistry, urinalysis were performed at 24 hours post administration. Adverse events were spontaneously reported by the subject and recorded. Rescue analgesia medication was provided to the subject if required (initially diclofenac 50 mg, repeated at 8 hourly intervals if necessary). When diclofenac was judged by the Investigator to provide inadequate pain relief then the subject was provided with alfentanil 1 mg, repeated at 6 hourly intervals, if necessary.

[4] = test system: subjects with osteoarthritis of the knee; assay: Osteoarthritis of the knee safety study (Phase 1): intra-articular purified capsaicin after lignocaine; safety, tolerability, VAS pain; type: in vivo, human
Method: The primary objective of the study was to evaluate the safety and tolerability of intra-articular capsaicin, when co-administered with intra-articular local anesthetic, compared to placebo, in subjects with end-stage osteoarthritis of the knee, already scheduled to receive knee replacements.
The study was designed to include 16 evaluation subjects. […] Sixteen subjects completed the study.
Patients were treated randomly and in double-blind fashion in four treatment groups, with each group having a progressively longer interval between the intra-articular administration of study medication and subsequent total knee replacement (2, 4, 7, and 14 days). […] Gross and microscopic pathology analysis was completed for each treatment group before the next treatment group was treated.
Each subject had 3 study visits: a Screening Day (Day −7 to −1), the Treatment Day (Day 0), and a Post-Treatment Day (scheduled for Day +2, +4, +7, or +14). On the Treatment Day the subject was randomized, pre-treatment evaluation was performed. The patients were brought into the procedure room, and a VAS pain score was taken (0 mm—no pain, 100 mm—extreme pain). Once the patient had marked his or her pain on the card, he/she was prepped for knee cannulation. Once the cannula was placed, the patient received by intra-articular infiltration, 3 mg/kg (maximum dose of 200 mg) of 2% lignocaine into the knee scheduled to be replaced.
VAS pain scores as well as verbal reports were taken immediately following administration, as well as prior to knee replacement surgery. No subjects discontinued from the study due to adverse events.
On the Post-Treatment Day, study evaluation was performed followed by the scheduled knee replacement, with intra-operative bone and soft tissue biopsies performed for subsequent examination. […] This therefore left the 3 placebo and 9 active patients from the 4 day, 7 day, and 14 day cohorts.

clinical = assay: clinical; set-up: species or system human; settings: in vivo
Method: The pharmacokinetic parameters of Cmax, Tmax, AUC(0−tlast) and t½ were evaluated.

[5] = test system: radiation induced hyperalgesia; settings: systemic, cited from earlier work
[6] = cited from earlier work
[7] = human, in vivo; cited from earlier work

Structure (SMILES): CN(C)CCC=C1c2ccccc2CCc2ccccc21 [amitriptyline]
- action when administered locally [1]: produced local antinociceptive actions

Structure (SMILES): COc1cc(CNC(=O)CCCC/C=C/C(C)C)ccc1O [purified capsaicin, N-(4-hydroxy-3-methoxybenzyl)-8-methylnon-trans-6-enamide]
- final NRS (Numerical Rating Scale) pain score [2]: 3.97
- time at which a subject required rescue, per subject ([3]; 1000 μg prior to wound closure): 1 h and 4 h and 5 h and 8 h and 12 h
- study subjects requiring rescue ([3]; 1000 μg prior to wound closure, 72 hours, n=11): 45%
- subjects that did not rescue in 72 hours ([3]; 1000 μg prior to wound closure, n=11): 6 subjects
- VAS pain score at the operation site (mean +/− SEM) ([3]; 1 hr): 11.1 +/− 7.3
- VAS pain score at the operation site (mean +/− SEM) ([3]; 8 hr): 5.5 +/− 2.3
- VAS pain score at the operation site (mean +/− SEM) ([3]; 12 hr): 8.2 +/− 3.8
- VAS pain score at the operation site (mean +/− SEM) ([3]; 24 hr): 1.9 +/− 1.0
- VAS pain score at the operation site (mean +/− SEM) ([3]; 48 hr): 5.9 +/− 2.5
- VAS pain score at the operation site (mean +/− SEM) ([3]; 72 hr): 10.6 +/− 3.5
- incidence of post injection hyperalgesia ([4]; 10 μg dose group): no subjects
- patients reporting transient burning pain immediately following instillation ([4]; 10 μg intra-articular): 0 of 4
- duration of post-administration (hyper)algesic pain, per subject ([4]; 100 μg dose group): 9 min
- incidence of post injection hyperalgesia ([4]; 100 μg dose group): 1 subject
- subjects requiring intervention for post-injection (hyper)algesia ([4]; 100 μg dose group): 1 subject
- patients reporting transient burning pain immediately following instillation ([4]; 100 μg intra-articular): 1 of 4
- duration of post-administration (hyper)algesic pain, per subject ([4]; 300 μg dose group): 17 minutes and 25 minutes (2×) and 42 minutes
- incidence of post injection hyperalgesia ([4]; 300 μg dose group): 4 subjects
- subjects requiring intervention for post-injection (hyper)algesia ([4]; 300 μg dose group): 4 subjects
- patients reporting transient burning pain immediately following instillation ([4]; 300 μg intra-articular): 4 of 4
- reduction of VAS pain score, before administration vs day of surgery ([4]; 9 active patients of the 4, 7 and 14 day cohorts, doses 10-300 μg pooled): 62±14%
- effects on laboratory safety parameters or vital signs ([4]; 10-300 μg intra-articular): no treatment related effects
- effects on soft tissue, cartilage or bone upon histopathological examination ([4]; 10-300 μg intra-articular): no treatment related effects
- erythema, edema or hemorrhage at the site of injection ([4]; 10-300 μg intra-articular): no treatment related signs
- gross and microscopic pathology ([4]; 10-300 μg intra-articular): normal
- leakage of study drug from the joint space ([4]; 10-300 μg intra-articular): low leakage
- systemic side effects ([4]; 10-300 μg intra-articular): No treatment related systemic side effects
- median decrease from baseline to pre-operative time point in VAS for pain at the target knee, vs placebo ([4]; all 3 capsaicin dose groups): substantially greater
- tolerability ([4]; all dose levels (10, 100, 300 μg)): well tolerated
- onset of post-administration (hyper)algesia after administration ([4]; all episodes, 100 and 300 μg): ≤ 5 min
- effect on proprioception at the injected knee ([4]; any dose group, any time point): no discernable effect
- indication of efficacy on VAS pain ([4]; any of the dose levels (10, 100, 300 μg)): No clear treatment related indication of efficacy
- Tmax (clinical; human, 300 ug): 30 min
- half-life (clinical; human, 300 ug, terminal exponential half life, per subject): 19.6 min
- plasma concentrations compared with the 100 μg and 300 μg dose groups (clinical): clearly lower
- effect on radiation induced hyperalgesia ([5]; final doses of 25 mg/kg or less, prior to ultra violet radiation): prevented radiation induced hyperalgesia
- effect on pain threshold ([5]; final doses of 25 mg/kg or less): did not elevate the pain threshold above normal range
- effect on pain threshold ([5]; final doses of 50 mg/kg or greater): pain threshold elevated
- solubility in alcohol, ether, benzene and chloroform [6]: freely soluble
- solubility in water [6]: practically insoluble

Structure (SMILES): CN1C(C(=O)Nc2ccccn2)=C(O)c2ccccc2S1(=O)=O [piroxicam]
- patients experiencing gross bleeding and ulceration [7]: up to 4%

Structure (SMILES): CNCCCN1c2ccccc2CCc2ccccc21 [desipramine]
- action when administered locally [1]: produced local antinociceptive actions
